The source of these data is patent US11053251B2, “GPR35 modulators” (Prometheus Biosciences, Inc., priority 2019, dated 2021).

In experiment [1] the target is Human GPR35 (Homo sapiens, UniProt Q9HC97). As to the kind of experiment: Beta-Arrestin Assay (Tango U2OS cells, LiveBLAzer-FRET B/G). In kind it is cell-based. The conditions noted are these: Human GPR35 expressing Tango U2OS cells, 5 hours treatment. On the procedure:
Human GPR35 expressing Tango U2OS cells were plated in 384-well format in clear bottom plates at a cell density of 10,000 cells/well and allowed to grow overnight. The next day, cells were treated with serially diluted test compounds for 5 hours. LiveBLAzer-FRET B/G (CCF4-AM) detection reagents were then added and cells were allowed to incubate for 2 hours before reading plates on a BioTek Cytation 5 plate reader. Zaprinast was used as a positive control for dose-response curves. In order to determine EC50 values, data were fit to a four-parameter dose-response curve.

The target in experiment [2] is Human GPR35 (Homo sapiens, UniProt Q9HC97, S294R). As to the kind of experiment: Alternative Beta-Arrestin Assay (JumpIn 294R Tango U2OS cells, LiveBLAzer-FRET B/G). It counts as cell-based. The conditions noted are these: for EC50: Human GPR35 expressing JumpIn 294R Tango U2OS cells, 5 hours treatment. The method in brief: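 U2OS Tango cells expressing human GPR35 S294R, plated overnight, exposed to serially diluted compounds for 5 hours. β-lactamase reporter read with LiveBLAzer-FRET B/G (CCF4-AM) after 2 h; EC50 from four-parameter fit, zaprinast as positive control.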
Sequence of Human GPR35 (Homo sapiens, UniProt Q9HC97, S294R) (Q9HC97 whole entry S294R): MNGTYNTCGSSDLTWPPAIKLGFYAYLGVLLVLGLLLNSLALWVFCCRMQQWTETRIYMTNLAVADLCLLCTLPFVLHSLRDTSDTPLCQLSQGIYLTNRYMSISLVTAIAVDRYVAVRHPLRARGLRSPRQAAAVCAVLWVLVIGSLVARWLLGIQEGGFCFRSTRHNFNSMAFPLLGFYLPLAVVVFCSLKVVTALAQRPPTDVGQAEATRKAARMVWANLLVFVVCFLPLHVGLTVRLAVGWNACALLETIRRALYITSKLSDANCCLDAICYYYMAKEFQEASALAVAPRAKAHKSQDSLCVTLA

A value given as a limit tells only on which side of the number the result lay.

Sequence of Human GPR35 (Homo sapiens, UniProt Q9HC97) (Q9HC97 whole entry): as the sequence (Q9HC97 whole entry S294R) above, with R294S counted along it

The EC50 is the concentration needed to bring the measured effect to its halfway point. A higher EC50 goes with lower potency in that assay. Take `CCOc1cc(-c2ccc(C)c(C(=O)O)c2)ccc1-c1nc2[nH]nnc2c(=O)[nH]1` [Compound 155, 3′-ethoxy-4-methyl-4′-(7-oxo-6,7-dihydro-3H-[1,2,3]triazolo[4,5-d]pyrimidin-5-yl)-[1,1′-biphenyl]-3-carboxylic acid]: the EC50 in experiment [1] and in experiment [2] was not above 10 µM throughout.
Turning to `CCOC(=O)Cn1cc(-c2ccc(-c3nc4[nH]nnc4c(=O)[nH]3)c(OCC)c2)cn1` [Compound 126, Ethyl 2-(4-(3-ethoxy-4-(7-oxo-6,7-dihydro-3H-[1,2,3]triazolo[4,5-d]pyrimidin-5-yl)phenyl)-1H-pyrazol-1-yl)acetate], the EC50 in experiment [1] and in experiment [2] was not above 10 µM in each case.
As for `CCOc1cc(C(=O)Nc2cccnc2)ccc1-c1nc2[nH]nnc2c(=O)[nH]1` [Compound 141, 3-ethoxy-4-(7-oxo-6,7-dihydro-3H-[1,2,3]triazolo[4,5-d]pyrimidin-5-yl)-N-(pyridin-3-yl)benzamide], the EC50 in experiment [1] and in experiment [2] was not above 10 µM throughout.
For the molecule `CCOc1cc(-c2cccnc2)ccc1-c1nc2[nH]nnc2c(=O)[nH]1` [Compound 102, 5-(2-Ethoxy-4-(pyridin-3-yl)phenyl)-3,6-dihydro-7H-[1,2,3]triazolo[4,5-d]pyrimidin-7-one], the EC50 in experiment [1] and in experiment [2] was not above 10 µM each time.
With `CCOc1cc(-c2ccc(CC(=O)O)cc2)ccc1-c1nc2[nH]nnc2c(=O)[nH]1` [Compound 115, 2-(3′-Ethoxy-4′-(7-oxo-6,7-dihydro-3H-[1,2,3]triazolo[4,5-d]pyrimidin-5-yl)-[1,1′-biphenyl]-4-yl)acetic acid], the EC50 in experiment [1] and in experiment [2] was not above 10 µM each time.
Regarding `CCOc1cc(-c2ccc(O)c(C(=O)O)c2)ccc1-c1nc2[nH]nnc2c(=O)[nH]1` [Compound 179, 3′-ethoxy-4-hydroxy-4′-(7-oxo-6,7-dihydro-3H-[1,2,3]triazolo[4,5-d]pyrimidin-5-yl)-[1,1′-biphenyl]-3-carboxylic acid], the EC50 in experiment [1] and in experiment [2] was not above 10 µM in each case.
For the molecule `O=c1[nH]c(-c2ccc(-c3ccccc3)cc2)nc2[nH]nnc12` [Compound 129, 5-([1,1′-biphenyl]-4-yl)-3,6-dihydro-7H-[1,2,3]triazolo[4,5-d]pyrimidin-7-one], the half-maximal effective concentration (EC50) in experiment [1] was not above 10 µM; in experiment [2] it was 10 to 50 µM.
Regarding `CCOc1cc(C(=O)N(C)c2ccccc2)ccc1-c1nc2[nH]nnc2c(=O)[nH]1` [Compound 139, 3-ethoxy-N-methyl-4-(7-oxo-6,7-dihydro-3H-[1,2,3]triazolo[4,5-d]pyrimidin-5-yl)-N-phenylbenzamide], the EC50 in experiment [1] was more than 10 µM. In addition, in experiment [2] (at 50 μM, Table 2), the “% inhibition at 50 μM” value is 35% inhibition at.
For `CCOc1cc(-c2ccc(C(=O)OC)cc2)ccc1-c1nc2[nH]nnc2c(=O)[nH]1` [Compound 108, Methyl 3′-ethoxy-4′-(7-oxo-6,7-dihydro-3H-[1,2,3]triazolo[4,5-d]pyrimidin-5-yl)-[1,1′-biphenyl]-4-carboxylate], the half-maximal effective concentration (EC50) in experiment [1] and in experiment [2] was not above 10 µM throughout.
As for `CCOc1cc(Cc2ccccc2C(=O)O)ccc1-c1nc2[nH]nnc2c(=O)[nH]1` [Compound 175, 2-(3-ethoxy-4-(7-oxo-6,7-dihydro-3H-[1,2,3]triazolo[4,5-d]pyrimidin-5-yl)benzyl)benzoic acid], the EC50 in experiment [1] and in experiment [2] was not above 10 µM each time.
With `CCOc1cc(C(=O)N2CC[C@H](C(=O)O)C2)ccc1-c1nc2[nH]nnc2c(=O)[nH]1` [Compound 160, (S)-1-(3-ethoxy-4-(7-oxo-6,7-dihydro-3H-[1,2,3]triazolo[4,5-d]pyrimidin-5-yl)benzoyl)pyrrolidine-3-carboxylic acid], the EC50 in experiment [1] and in experiment [2] was not above 10 µM in each case.
As for `CCOc1cc(-c2cccc(OCC(=O)O)c2)ccc1-c1nc2[nH]nnc2c(=O)[nH]1` [Compound 121, 2-((3′-Ethoxy-4′-(7-oxo-6,7-dihydro-3H-[1,2,3]triazolo[4,5-d]pyrimidin-5-yl)-[1,1′-biphenyl]-3-yl)oxy)acetic acid], the EC50 in experiment [1] and in experiment [2] was not above 10 µM throughout.
Regarding `CCOc1cc(N2CC[C@H](C(=O)O)C2)ccc1-c1nc2[nH]nnc2c(=O)[nH]1` [Compound 166, (S)-1-(3-ethoxy-4-(7-oxo-6,7-dihydro-3H-[1,2,3]triazolo[4,5-d]pyrimidin-5-yl)phenyl)pyrrolidine-3-carboxylic acid], the concentration giving a half-maximal response (EC50) in experiment [1] and in experiment [2] was not above 10 µM in each case.
Turning to `CCOc1cc(-c2cncc(C(=O)O)c2)ccc1-c1nc2[nH]nnc2c(=O)[nH]1` [Compound 113, 5-(3-Ethoxy-4-(7-oxo-6,7-dihydro-3H-[1,2,3]triazolo[4,5-d]pyrimidin-5-yl)phenyl)nicotinic acid], the EC50 in experiment [1] and in experiment [2] was not above 10 µM in each case.
Consider `CCCOc1cc(-c2cccc(C(=O)O)c2)ccc1-c1nc2[nH]nnc2c(=O)[nH]1` [Compound 128, 4′-(7-Oxo-6,7-dihydro-3H-[1,2,3]triazolo[4,5-d]pyrimidin-5-yl)-3′-propoxy-[1,1′-biphenyl]-3-carboxylic acid], for which the EC50 in experiment [1] and in experiment [2] was not above 10 µM throughout.
On to `CCOc1cc(-c2ccc(C(=O)O)nc2)ccc1-c1nc2[nH]nnc2c(=O)[nH]1` [Compound 125, 5-(3-Ethoxy-4-(7-oxo-6,7-dihydro-3H-[1,2,3]triazolo[4,5-d]pyrimidin-5-yl)phenyl)picolinic acid], for which the EC50 in experiment [1] and in experiment [2] was not above 10 µM in each case.
As to `CCOc1cc(-c2cc[nH]n2)ccc1-c1nc2nn[nH]c2c(=O)[nH]1` [Compound 131, 5-(2-Ethoxy-4-(1H-pyrazol-3-yl)phenyl)-1,6-dihydro-7H-[1,2,3]triazolo[4,5-d]pyrimidin-7-one], the EC50 in experiment [1] and in experiment [2] was not above 10 µM in each case.
For `O=C(O)Cc1ccc(-c2nc3[nH]nnc3c(=O)[nH]2)cc1` [Compound 149, 2-(4-(7-oxo-6,7-dihydro-3H-[1,2,3]triazolo[4,5-d]pyrimidin-5-yl)phenyl)acetic acid], the half-maximal effective concentration (EC50) in experiment [1] and in experiment [2] was not above 10 µM each time.
Turning to `CCOc1cc(-c2cccc(C(N)=O)c2)ccc1-c1nc2[nH]nnc2c(=O)[nH]1` [Compound 156, 3′-ethoxy-4′-(7-oxo-6,7-dihydro-3H-[1,2,3]triazolo[4,5-d]pyrimidin-5-yl)-[1,1′-biphenyl]-3-carboxamide], the EC50 in experiment [1] and in experiment [2] was not above 10 µM throughout.
In the case of `CCOc1cc(-c2ccc(OC)c(C(=O)O)c2)ccc1-c1nc2[nH]nnc2c(=O)[nH]1` [Compound 182, 3′-ethoxy-4-methoxy-4′-(7-oxo-6,7-dihydro-3H-[1,2,3]triazolo[4,5-d]pyrimidin-5-yl)-[1,1′-biphenyl]-3-carboxylic acid], the EC50 in experiment [1] and in experiment [2] was not above 10 µM in each case.
Consider `CCOc1cc(-c2cccc(C(=O)O)c2C)ccc1-c1nc2[nH]nnc2c(=O)[nH]1` [Compound 154, 3′-ethoxy-2-methyl-4′-(7-oxo-6,7-dihydro-3H-[1,2,3]triazolo[4,5-d]pyrimidin-5-yl)-[1,1′-biphenyl]-3-carboxylic acid], for which the EC50 in experiment [1] and in experiment [2] was not above 10 µM each time.
`CCOc1cc(C(=O)N2CC[C@@H](C(=O)O)C2)ccc1-c1nc2[nH]nnc2c(=O)[nH]1` [Compound 161, (R)-1-(3-ethoxy-4-(7-oxo-6,7-dihydro-3H-[1,2,3]triazolo[4,5-d]pyrimidin-5-yl)benzoyl)pyrrolidine-3-carboxylic acid]: the concentration giving a half-maximal response (EC50) in experiment [1] and in experiment [2] was not above 10 µM in each case.
On to `CCOc1cc(C(=O)N2CCCCC2C(=O)O)ccc1-c1nc2[nH]nnc2c(=O)[nH]1` (stereo not shown) [Compound 171, 1-(3-ethoxy-4-(7-oxo-6,7-dihydro-3H-[1,2,3]triazolo[4,5-d]pyrimidin-5-yl)benzoyl)piperidine-2-carboxylic acid], for which the EC50 in experiment [1] was more than 10 µM; in experiment [2] it was 10 to 50 µM.
Regarding `CCOc1cc(C(=O)N2CCC[C@@H]2C(=O)O)ccc1-c1nc2[nH]nnc2c(=O)[nH]1` [Compound 159, (3-ethoxy-4-(7-oxo-6,7-dihydro-3H-[1,2,3]triazolo[4,5-d]pyrimidin-5-yl)benzoyl)-D-proline], the EC50 in experiment [1] was more than 10 µM; in experiment [2] it was 10 to 50 µM.
The corresponding values for `CCOc1cc(-c2cnn(CC(=O)O)c2)ccc1-c1nc2[nH]nnc2c(=O)[nH]1` [Compound 127, 2-(4-(3-Ethoxy-4-(7-oxo-6,7-dihydro-3H-[1,2,3]triazolo[4,5-d]pyrimidin-5-yl)phenyl)-1H-pyrazol-1-yl)acetic acid] are not above 10 µM and not above 10 µM.
On the same counts, the results for `CCOc1cc(-c2ncccn2)ccc1-c1nc2[nH]nnc2c(=O)[nH]1` [Compound 103, 5-(2-Ethoxy-4-(pyrimidin-2-yl)phenyl)-3,6-dihydro-7H-[1,2,3]triazolo[4,5-d]pyrimidin-7-one] are not above 10 µM and not above 10 µM.
